Experimental data as given in patent US4241064A, “9H-Pyrido[3,4-b]indole derivatives” (Nippon Shinyaku Co. Ltd., priority 1978, dated 1980).
Like-named read-outs stand apart in the source and are kept apart here. One block for each molecule: values may come before it.

Experiments:
xanthine-oxidase = xanthine-oxidase (Bos taurus, UniProt P80457); experiment: xanthine-oxidase inhibitory activity (pre-incubation 5 min, then 10 μM xanthine; Kalker); format: biochemical; conditions: Table I; phosphate buffer pH 7.5, 10 μM xanthine; read-out: IC50 (xanthine-oxidase inhibition) (converted)
Source text: The foregoing compounds have the property of inhibiting the enzyme xanthine-oxidase. As is known, xanthine-oxidase inhibitors improve hyperuricacidemia by suppressing the formation of uric acid and, as such, find use as therapeutic and prophylactic agents in the treatment of gout, calculus in the urinary organ, tissue degeneration of the circulatory system, and the like. The xanthine-oxidase inhibitory activity is expressed in terms of the concentration of the agent at which a 50% inhibition of xanthine-oxidase activity is observed (IC50). This can be readily measured pre-incubation of test specimens at varying concentrations in phosphate buffer (pH 7.5) for 5 minutes, then adding 10 μM of xanthine, measuring the enzyme activity (Kalker), and comparing the assay result with the activity of a control to determine the percent inhibition. (The IC50 value being derived from a plot of concentration versus percent inhibition).
According to the present invention, commercial picrasma wood, dry pulverized picrasma wood or, preferably, the dry pulverized powder of its heart wood, is extracted with a polar organic solvent such as water or methanol and the extract is then concentrated to yield a whole picrasma extract. This extract is then fractionated as for example by Sephadex LH or silica gel chromatography. The fractions are assayed for xanthine-oxidase inhibitory activity and the active fraction this then purified as by recrystallization.

Ehrlich ascites cells [1] = experiment: survival of mice transplanted with Ehrlich ascites cells, i.p. dosing for 7 consecutive days (potentiation of mitomycin C); format: in vivo, ddY mice; conditions: for Survival Rate (%): i.p. 7 days, compound 1 50 mg/kg/day, mitomycin C 0.5 mg/kg/day
Protocol: (§1) Thus, ddY mice (male, body weights ca 18 g) were reared for a week and 1×10^6 Ehrlich ascites cells/animal were intraperitoneally transplanted. After 24 hours, mitomycin C or/and compound 1 were administered intraperitoneally for 7 consecutive days.

Ehrlich ascites cells [2] = conditions: single i.p. at day 6, mitomycin C 1 mg/kg, compound 1 50 mg/kg
Protocol: as §1

Sequence of xanthine-oxidase (P80457 whole entry): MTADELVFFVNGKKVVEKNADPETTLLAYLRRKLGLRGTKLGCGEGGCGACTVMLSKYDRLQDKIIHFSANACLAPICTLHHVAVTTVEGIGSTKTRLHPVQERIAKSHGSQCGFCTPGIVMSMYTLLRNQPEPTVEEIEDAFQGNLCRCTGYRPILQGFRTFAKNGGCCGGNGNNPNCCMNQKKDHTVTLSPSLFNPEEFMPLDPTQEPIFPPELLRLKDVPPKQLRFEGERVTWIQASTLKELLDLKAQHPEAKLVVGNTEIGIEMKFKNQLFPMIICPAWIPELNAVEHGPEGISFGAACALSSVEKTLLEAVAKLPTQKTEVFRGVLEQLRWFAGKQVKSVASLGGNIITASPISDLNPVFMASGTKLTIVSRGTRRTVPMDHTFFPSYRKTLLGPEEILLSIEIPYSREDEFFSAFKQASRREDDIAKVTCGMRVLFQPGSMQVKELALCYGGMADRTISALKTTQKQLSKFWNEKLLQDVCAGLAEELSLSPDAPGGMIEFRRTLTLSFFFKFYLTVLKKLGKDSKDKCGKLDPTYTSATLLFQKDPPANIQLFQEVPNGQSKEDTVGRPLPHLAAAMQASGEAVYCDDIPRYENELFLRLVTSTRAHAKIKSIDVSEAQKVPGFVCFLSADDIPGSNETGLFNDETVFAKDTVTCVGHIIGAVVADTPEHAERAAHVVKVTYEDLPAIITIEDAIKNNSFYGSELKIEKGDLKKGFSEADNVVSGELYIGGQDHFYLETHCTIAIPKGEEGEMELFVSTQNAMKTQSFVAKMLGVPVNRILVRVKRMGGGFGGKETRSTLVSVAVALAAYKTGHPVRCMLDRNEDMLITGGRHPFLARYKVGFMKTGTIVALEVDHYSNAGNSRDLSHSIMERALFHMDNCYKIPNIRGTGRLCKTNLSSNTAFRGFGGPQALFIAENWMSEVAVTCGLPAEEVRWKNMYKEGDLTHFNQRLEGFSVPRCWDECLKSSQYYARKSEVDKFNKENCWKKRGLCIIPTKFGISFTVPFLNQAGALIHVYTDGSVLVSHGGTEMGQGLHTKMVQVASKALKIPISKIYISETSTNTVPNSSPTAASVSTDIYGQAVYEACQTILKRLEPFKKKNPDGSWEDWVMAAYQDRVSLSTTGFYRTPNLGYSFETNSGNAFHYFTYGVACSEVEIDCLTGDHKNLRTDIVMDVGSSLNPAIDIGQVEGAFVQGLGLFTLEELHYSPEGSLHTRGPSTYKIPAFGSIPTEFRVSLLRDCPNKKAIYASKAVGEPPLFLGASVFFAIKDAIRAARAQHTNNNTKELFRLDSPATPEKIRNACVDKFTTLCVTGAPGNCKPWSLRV

SMILES: O=Cc1ncc(O)c2c1[nH]c1ccccc12 [Compound 1, 1-formyl-4-hydroxy-9H-pyrido[3,4-b]indole]
- IC50 (xanthine-oxidase): 3.06 nM
- Survival Rate (%) (Ehrlich ascites cells [1]; Day 16): 100%
- Survival Rate (%) (Ehrlich ascites cells [1]; Day 17): 90%
- Survival Rate (%) (Ehrlich ascites cells [1]; Day 18): 80%
- Survival Rate (%) (Ehrlich ascites cells [1]; Day 19): 80%
- Survival Rate (%) (Ehrlich ascites cells [1]; Day 20): 70%
- Survival Rate (%) (Ehrlich ascites cells [1]; Day 21): 70%
- Survival Rate (%) (Ehrlich ascites cells [1]; Day 22): 40%
- Survival Rate (%) (Ehrlich ascites cells [1]; Day 23): 30%
- Survival Rate (%) (Ehrlich ascites cells [1]; Day 24): 10%
- Survival Rate (%) (Ehrlich ascites cells [1]; Day 25): 10%
- Survival Rate (%) (Ehrlich ascites cells [1]; Day 26): 10%
- potentiation of the antitumor activity of mitomycin C and similar antibiotics (Ehrlich ascites cells [1]; result in words, conventional laboratory models): significant potentiation of the antitumor activity of mitomycin C

SMILES: CO[C@@]12[C@H](COC(N)=O)C3=C(C(=O)C(C)=C(N)C3=O)N1C[C@@H]1N[C@@H]12 [Mitomycin, mitomycin C]
- Survival Rate (%) (Ehrlich ascites cells [1]; Day 16): 100%
- Survival Rate (%) (Ehrlich ascites cells [1]; Day 17): 100%
- Survival Rate (%) (Ehrlich ascites cells [1]; Day 18): 100%
- Survival Rate (%) (Ehrlich ascites cells [1]; Day 19): 100%
- Survival Rate (%) (Ehrlich ascites cells [1]; Day 20): 100%
- Survival Rate (%) (Ehrlich ascites cells [1]; Day 21): 100%
- Survival Rate (%) (Ehrlich ascites cells [1]; Day 22): 90%
- Survival Rate (%) (Ehrlich ascites cells [1]; Day 23): 90%
- Survival Rate (%) (Ehrlich ascites cells [1]; Day 24): 90%
- Survival Rate (%) (Ehrlich ascites cells [1]; Day 25): 90%
- Survival Rate (%) (Ehrlich ascites cells [1]; Day 26): 90%
- Survival Rate (%) (Ehrlich ascites cells [1]; Day 27): 90%
- Survival Rate (%) (Ehrlich ascites cells [1]; Day 28): 80%
- Survival Rate (%) (Ehrlich ascites cells [1]; Day 29): 70%
- Survival Rate (%) (Ehrlich ascites cells [1]; Day 30): 70%
- Survival Rate (%) (Ehrlich ascites cells [1]; Day 33): 70%
- Survival Rate (%) (Ehrlich ascites cells [1]; Day 34): 60%
- Survival Rate (%) (Ehrlich ascites cells [1]; Day 38): 60%
- Survival Rate (%) (Ehrlich ascites cells [1]; Day 39): 50%
- Survival Rate (%) (Ehrlich ascites cells [1]; Day 48): 50%
- Survival Rate (%) (Ehrlich ascites cells [1]; Day 49): 40%
- Survival Rate (%) (Ehrlich ascites cells [1]; Day 52): 40%
- Survival Rate (%) (Ehrlich ascites cells [1]; Day 53): 30%
- Survival Rate (%) (Ehrlich ascites cells [1]; Day 56): 30%
- Survival Rate (%) (Ehrlich ascites cells [1]; Day 57): 20%
- Survival Rate (%) (Ehrlich ascites cells [1]; Day 58): 20%
- Survival Rate (%) (Ehrlich ascites cells [1]; Day 59): 20%
- Survival Rate (%) (Ehrlich ascites cells [1]; Day 60 after transplantation): 20%
- No. Surviving (Ehrlich ascites cells [2]; Day 10): 7
- No. Surviving (Ehrlich ascites cells [2]; Day 11): 7
- No. Surviving (Ehrlich ascites cells [2]; Day 12): 7
- No. Surviving (Ehrlich ascites cells [2]; Day 13): 7
- No. Surviving (Ehrlich ascites cells [2]; Day 14): 7
- No. Surviving (Ehrlich ascites cells [2]; Day 15): 7
- No. Surviving (Ehrlich ascites cells [2]; Day 16): 7
- No. Surviving (Ehrlich ascites cells [2]; Day 17): 7
- No. Surviving (Ehrlich ascites cells [2]; Day 18): 5
- No. Surviving (Ehrlich ascites cells [2]; Day 19): 5
- No. Surviving (Ehrlich ascites cells [2]; Day 20): 4
- No. Surviving (Ehrlich ascites cells [2]; Day 21): 4
- No. Surviving (Ehrlich ascites cells [2]; Day 22): 4
- No. Surviving (Ehrlich ascites cells [2]; Day 23): 2
- No. Surviving (Ehrlich ascites cells [2]; Day 24): 2
- No. Surviving (Ehrlich ascites cells [2]; Day 25): 1
- No. Surviving (Ehrlich ascites cells [2]; Day 26): 1
- No. Surviving (Ehrlich ascites cells [2]; Day 27): 1
- No. Surviving (Ehrlich ascites cells [2]; Day 28): 1

SMILES: CC(=O)Oc1cnc(C=O)c2[nH]c3ccccc3c12 [OCOCH3 H CHO, 1-Formyl-4-Acetoxy-9H-Pyrido[3,4-b]Indole]
- IC50 (xanthine-oxidase): 6.69 nM

SMILES: OCc1ncc(O)c2c1[nH]c1ccccc12 [OH H CH2 OH, 1-Hydroxymethyl-4-Hydroxy-9H-pyrido[3,4-b]Indole]
- IC50 (xanthine-oxidase): 336 nM

SMILES: COC(=O)c1ncc(O)c2c1[nH]c1ccccc12 [OH H COOCH3, 1-Carbomethoxy-4-Hydroxy-9H-Pyrido[3,4-b]Indole]
- IC50 (xanthine-oxidase): 78400 nM

Next, values leading:

- IC50 (xanthine-oxidase): 21700 nM
SMILES: OCc1nccc2c1[nH]c1ccccc12 [H H CH2 OH, 1-Hydroxymethyl-9H-Pyrido[3,4-b]Indole]

- IC50 (xanthine-oxidase): 4080 nM
SMILES: O=Cc1nccc2c1[nH]c1ccccc12 [H H CHO]

- IC50 (xanthine-oxidase): 177000 nM
SMILES: COC(=O)c1nccc2c1[nH]c1ccccc12 [H H COOCH3, 1-carbomethoxy-9H-pyrido[3,4-b]indole]

- IC50 (xanthine-oxidase): 1790 nM
SMILES: O=Cc1nc(O)cc2c1[nH]c1ccccc12 [H OH CHO, 1-Formyl-3-Hydroxy-9H-Pyrido[3,4-b]Indole]

- IC50 (xanthine-oxidase): 1100 nM
SMILES: O=C(O)c1ncc(O)c2c1[nH]c1ccccc12 [OH H COOH, 1-Carboxy-4-Hydroxy-9H-Pyrido[3,4-b]Indole]
